Source: PMC11822212, “High-throughput screening identifies Aurora kinase B as a critical therapeutic target for Merkel cell carcinoma” (Nature Communications, 2025)

Columns and labels:
[1] = tested on: MCC13 cells (VN-MCC); assay: qHTS cell viability (CellTiter-Glo, 72 h; primary and follow-up small molecule screen); type: cell-based, human
[2] = tested on: MCC26 cells (VN-MCC); assay: as above; type: cell-based, human
[3] = tested on: UISO cells (VN-MCC); assay: as above; type: cell-based, human
[4] = tested on: WAGA cells (VP-MCC); assay: as above; type: cell-based, human
[5] = tested on: MKL-1 cells (VP-MCC); assay: as above; type: cell-based, human
[6] = tested on: MKL-2 cells (VP-MCC); assay: as above; type: cell-based, human
[7] = tested on: HACAT cells; assay: qHTS cell viability (CellTiter-Glo, 72 h; primary screen), control cell line; type: cell-based, human
[8] = tested on: HEK293T cells; assay: as above; type: cell-based, human
[9] = tested on: NIH-3T3 cells; assay: as above; type: cell-based, mouse
[10] = tested on: CRL-7250 cells; assay: as above; type: cell-based
[11] = tested on: MCC cell lines (WAGA, MKL-1, MKL-2, MCC13, MCC26, UISO); assay: qHTS cell viability, all six MCC cell lines as a group (mean AUC, MCC.avg); type: cell-based, human
[12] = tested on: VP-MCC cell lines (WAGA, MKL-1, MKL-2); assay: qHTS cell viability, VP-MCC cell lines as a group (mean AUC, VP.MCC.avg); type: cell-based, human; details: for VP-MCC_Avg_AUC: mean AUC of VP-MCC cell lines
[13] = tested on: VN-MCC cell lines (MCC13, MCC26, UISO); assay: qHTS cell viability, VN-MCC cell lines as a group (mean AUC, VN.MCC.avg); type: cell-based, human; details: for VN-MCC_Avg_AUC: mean AUC of VN-MCC cell lines
[14] = tested on: control cell lines (HACAT, HEK293T, CRL-7250, NIH-3T3); assay: qHTS cell viability, control cell lines as a group (mean AUC, Control.avg); type: cell-based; details: mean AUC of control cell lines
[15] = tested on: six MCC cell lines and four control cell lines; assay: qHTS cell viability, all 10 cell lines screened; type: cell-based
[16] = MIPE library, 11-point DRC, sheet S2E
[17] = MIPE library, 11-point DRC, control cell line, sheet S2E
[18] = MIPE library, mean AUC of six MCC cell lines, sheet S2E
[19] = MIPE library, Control AUC minus VP-MCC AUC (therapeutic window), sheet S2E
[20] = MIPE library, Control AUC minus VN-MCC AUC (therapeutic window), sheet S2E
[21] = MIPE library, Control AUC minus MCC AUC (therapeutic window), sheet S2E

With C#C[C@]1(OC(C)=O)CC[C@H]2[C@@H]3CCC4=CC(=NO)CC[C@@H]4[C@H]3CC[C@@]21CC (mixture of isomers) [Norgestimate] the MCC13_AUC ([1]; NPC library, qHTS dose-response AUC, MCC13) was 443.22, the MCC26_AUC ([2]; NPC library, qHTS dose-response AUC, MCC26) was 396.072 and the MCC26_AUC ([2]; NPC library; qHTS dose-response AUC, MCC26) was 396.073. For the same compound, the UISO_AUC ([3]; NPC library, qHTS dose-response AUC, UISO) was 417.397, the WAGA_AUC ([4]; NPC library, qHTS dose-response AUC, WAGA) was 384.002 and the MKL1_AUC ([5]; NPC library, qHTS dose-response AUC, MKL1) was 398.179. For the same compound, the MKL2_AUC ([6]; NPC library, qHTS dose-response AUC, MKL2) was 415.787, the HACAT_AUC ([7]; NPC library, qHTS dose-response AUC, HACAT control) was 469.318 and the HEK293T_AUC ([8]; NPC library, qHTS dose-response AUC, HEK293T control) was 418.546. It also gave an HEK293T_AUC ([8]; NPC library; qHTS dose-response AUC, HEK293T control) of 418.545, an NIH3T3_AUC ([9]; NPC library, qHTS dose-response AUC, NIH3T3 control) of 462.903 and a CRL7250_AUC ([10]; NPC library, qHTS dose-response AUC, CRL7250 control) of 491.565. It also gave an MCC_Avg_AUC ([11]; NPC library, mean AUC of all 6 MCC cell lines) of 409.11, an MCC_Avg_AUC ([11]; NPC library, mean AUC of six MCC cell lines) of 409.109 and a Control-VP-MCC ([12]; Control AUC minus VP-MCC AUC) of 61.2604. It also gave a VP-MCC_Avg_AUC ([12]; NPC library) of 399.323, a Control-VP-MCC ([12]; NPC library, therapeutic window: Control avg AUC minus VP-MCC avg AUC) of 61.2604 and a Control-VN-MCC ([13]; Control AUC minus VN-MCC AUC) of 41.6867. For the same compound, the VN-MCC_Avg_AUC ([13]; NPC library) was 418.896, the Control-VN-MCC ([13]; NPC library, therapeutic window: Control avg AUC minus VN-MCC avg AUC) was 41.6867 and the Control_Avg_AUC ([14]; NPC library) was 460.583. For the same compound, the Control-MCC ([15]; NPC library, therapeutic window: Control avg AUC minus MCC avg AUC) was 51.4735.
C=C1/C(=C\C=C2/CCC[C@]3(C)[C@@H]([C@H](C)/C=C/[C@H](C)C(C)C)CC[C@@H]23)C[C@@H](O)C[C@@H]1O [1-alpha-Hydroxyergocalciferol] showed an MCC13_AUC [1, 16] of 466.906, an MCC26_AUC [2, 16] of 429.194 and a UISO_AUC [3, 16] of 386.134. For the same compound, the WAGA_AUC [4, 16] was 235.191, the MKL1_AUC [5, 16] was 338.352 and the MKL2_AUC [6, 16] was 310.498. The HACAT_AUC [7, 17] was 470.948, the HEK293T_AUC [8, 17] was 473.524 and the NIH3T3_AUC [9, 17] was 349.858. For the same compound, the CRL7250_AUC [10, 17] was 418.5, the MCC_Avg_AUC [11, 18] was 361.046 and the Control-VP-MCC [12, 19] was 133.527. The VP-MCC_Avg_AUC ([12]; MIPE library, sheet S2E) was 294.68, the Control-VN-MCC [13, 20] was 0.7959 and the VN-MCC_Avg_AUC ([13]; MIPE library, sheet S2E) was 427.411. It also gave a Control_Avg_AUC ([14]; MIPE library, sheet S2E) of 428.207 and a Control-MCC [15, 21] of 67.1615.
With CC1(C)CCC(c2ccc(Cl)cc2)=C(CN2CCN(c3ccc(C(=O)N[S+](=O)([O-])c4ccc(N[C@H](CCN5CCOCC5)CSc5ccccc5)c([S+](=O)([O-])C(F)(F)F)c4)cc3)CC2)C1 [ABT-263 (Navitoclax)] the MCC13_AUC [1, 16] was 470.158, the MCC26_AUC [2, 16] was 476.41 and the UISO_AUC [3, 16] was 533.391. It also gave a WAGA_AUC [4, 16] of 250.192, an MKL1_AUC [5, 16] of 289.046 and an MKL2_AUC [6, 16] of 277.677. For the same compound, the HACAT_AUC [7, 17] was 444.442, the HEK293T_AUC [8, 17] was 470.677 and the NIH3T3_AUC [9, 17] was 462.454. For the same compound, the CRL7250_AUC [10, 17] was 467.721, the MCC_Avg_AUC [11, 18] was 382.812 and the Control-VP-MCC [12, 19] was 189.019. The VP-MCC_Avg_AUC ([12]; MIPE library, sheet S2E) was 272.305, the Control-VN-MCC [13, 20] was -31.9962 and the VN-MCC_Avg_AUC ([13]; MIPE library, sheet S2E) was 493.32. The Control_Avg_AUC ([14]; MIPE library, sheet S2E) was 461.324 and the Control-MCC [15, 21] was 78.5112.
CN(C)CC[C@H](CSc1ccccc1)Nc1ccc(S(=O)(=O)NC(=O)c2ccc(N3CCN(Cc4ccccc4-c4ccc(Cl)cc4)CC3)cc2)cc1[N+](=O)[O-] [ABT-737] gave an MCC13_AUC [1, 16] of 474.092, an MCC26_AUC [2, 16] of 472.052 and a UISO_AUC [3, 16] of 486.905. For the same compound, the WAGA_AUC [4, 16] was 285.196, the MKL1_AUC [5, 16] was 334.511 and the MKL2_AUC [6, 16] was 288.506. It also gave an HACAT_AUC [7, 17] of 430.037, an HEK293T_AUC [8, 17] of 444.395 and an NIH3T3_AUC [9, 17] of 431.249. The CRL7250_AUC [10, 17] was 467.3, the MCC_Avg_AUC [11, 18] was 390.211 and the Control-VP-MCC [12, 19] was 140.507. It also gave a VP-MCC_Avg_AUC ([12]; MIPE library, sheet S2E) of 302.738, a Control-VN-MCC [13, 20] of -34.4381 and a VN-MCC_Avg_AUC ([13]; MIPE library, sheet S2E) of 477.683. It also gave a Control_Avg_AUC ([14]; MIPE library, sheet S2E) of 443.245 and a Control-MCC [15, 21] of 53.0346.
COCC1(CO)C(=O)C2CCN1CC2 (stereo not drawn) [APR-246] showed an MCC13_AUC [1, 16] of 460.845, an MCC26_AUC [2, 16] of 464.929 and a UISO_AUC [3, 16] of 425.775. The WAGA_AUC [4, 16] was 329.393, the MKL1_AUC [5, 16] was 344.8 and the MKL2_AUC [6, 16] was 331.652. For the same compound, the HACAT_AUC [7, 17] was 475.968, the HEK293T_AUC [8, 17] was 390.353 and the NIH3T3_AUC [9, 17] was 403.185. For the same compound, the CRL7250_AUC [10, 17] was 448.778, the MCC_Avg_AUC [11, 18] was 392.899 and the Control-VP-MCC [12, 19] was 94.289. It also gave a VP-MCC_Avg_AUC ([12]; MIPE library, sheet S2E) of 335.282, a Control-VN-MCC [13, 20] of -20.9457 and a VN-MCC_Avg_AUC ([13]; MIPE library, sheet S2E) of 450.517. For the same compound, the Control_Avg_AUC ([14]; MIPE library, sheet S2E) was 429.571 and the Control-MCC [15, 21] was 36.6717.
